The record followed here is patent publication US20090048346A1, “THERAPEUTIC FORMULATIONS” (Myriad Genetics, Incorporated, priority 2004, published 2009).

The conditions of the data set: 10 mg/mL in Cremophor:EtOH (1:1) diluted 1:9 with D5W, room temperature (approximately 25° C.), 38 days. On the procedure: 10 ml of this solution was diluted 1:9 by the addition of 90 ml of D5W, and the resulting formulation was mixed by inversion until the solution appeared uniformly clear. The resulting mixture—an injectable formulation—was incubated at room temperature (approximately 25° C.) for 38 days.

With `O=C(Nc1cc(C(F)(F)F)ccc1Oc1ccc(Cl)c2ccccc12)c1cc(Cl)ccc1O` [5-Chloro-N-[2-(4-chloro-naphtalen-1-yloxy)-5-trifluoromethyl-phenyl] -2-hydroxy-benzamide], the “Stability of compound concentration in the injectable formulation” value is given as “stable over the entire period”.
